Measurements from PubChem BioAssay (NCI).
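Cultured in 96-well plates, cells were exposed to test compound for 48 hours across five concentrations. TGI marks complete inhibition of growth.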 Where a SMILES comes first, the peptide text is derived from it. [ ]: non-standard residue; d: D form. The star is where a group is joined. NMeF = CN[CH](Cc1ccccc1)C(=O)O; NMeV = CN[CH](C(=O)O)C(C)C; Boc = CC(C)(C)OC(=O)*

How the values were obtained:
Test in all cases: growth of human tumour cells (NCI), 48 h
[1] = tested on: HCT-15 colon
[2] = tested on: MDA-MB-231 breast
[3] = tested on: OVCAR-5 ovarian
[4] = tested on: LOX IMVI melanoma
[5] = tested on: PC-3 prostate
[6] = tested on: MCF7 breast
[7] = tested on: SK-MEL-28 melanoma
[8] = tested on: SW-620 colon
[9] = tested on: NCI-H522 lung
[10] = tested on: IGROV1 ovarian
[11] = tested on: MDA-N
[12] = tested on: T-47D breast

| SMILES | TGI [1] [µM] | TGI [2] [µM] | TGI [3] [µM] | TGI [4] [µM] | TGI [5] [µM] | TGI [6] [µM] | TGI [7] [µM] | TGI [8] [µM] | TGI [9] [µM] | TGI [10] [µM] | TGI [11] [µM] | TGI [12] [µM] |
| --- | --- | --- | --- | --- | --- | --- | --- | --- | --- | --- | --- | --- |
| CC(=O)OC(/C=C/c1ccccc1)=C(OC(C)C)/C1=C(\c2ccccc2)SCCCSC1=O | > 100 | > 100 | > 100 | > 100 | > 100 | > 100 | > 100 | > 100 | – | – | – | – |
| Cc1ccc(-c2c(C#N)c(-c3ccc(Cl)cc3)c(C#N)c(=O)n2NS(=O)(=O)c2ccc(C)cc2)cc1 | > 100 | > 100 | > 100 | 58 | 45 | 36.5 | > 100 | > 100 | 71.9 | > 100 | > 100 | – |
| COc1cc(Cn2c3c(c4cc(O)ccc42)Cc2ccccc2C3=O)cc(OC)c1 | > 100 | > 100 | 56.2 | > 100 | > 100 | 78.6 | > 100 | > 100 | – | > 100 | > 100 | – |
| NC(N)=NCCC[C@H](N)C(=O)NCC(=O)N[C@@H](CC(=O)O)c1ncc(NC(=O)C(F)(F)F)o1 | > 25 | – | > 25 | > 25 | > 25 | > 25 | > 25 | > 25 | > 25 | > 25 | – | > 25 |
| CCCN1CCC(=O)N(CCC(F)(F)C(F)(F)C(F)(F)C(F)(F)C(F)(F)C(F)(F)F)C1=S | – | > 100 | > 100 | – | > 100 | > 100 | > 100 | > 100 | > 100 | > 100 | > 100 | > 100 |
| CN1CCC(O)(C(C)(C)C)CC1 | > 100 | > 100 | > 100 | > 100 | > 100 | > 100 | > 100 | > 100 | – | > 100 | > 100 | > 100 |
| O=C(c1ccc(N=Cc2ccccc2O)cc1)c1ccc(N=Cc2ccccc2O)cc1 | > 100 | > 100 | > 100 | > 100 | > 100 | > 100 | > 100 | > 100 | > 100 | > 100 | – | > 100 |
| CCOC(=O)CC1(C(=O)OCC)c2[nH]c3ccccc3c2CCN1Cc1ccccc1 (stereo not given) | > 100 | – | 39.5 | 32.9 | – | – | 39.4 | > 100 | 28.1 | 52.9 | – | – |
| CC(C)C(NC(=O)OC(C)(C)C)C(=O)N(C)C(Cc1ccccc1)C(=O)N(C)C(C(=O)O)C(C)C (stereo not drawn) (Boc-Val-[NMeF]-[NMeV]-OH; configuration not given here) | > 100 | – | – | > 100 | – | – | > 100 | > 100 | > 100 | > 100 | – | – |
| Cn1cc(NC(=O)c2cc(NC(=O)CN=C(N)N)cn2C)cc1C(=O)NCCC(=N)N | > 100 | – | > 100 | > 100 | > 100 | > 100 | > 100 | > 100 | > 100 | > 100 | > 100 | > 100 |
| O=Cc1c(C(=O)O)[nH]c(=O)[nH]c1=O | > 100 | > 100 | > 100 | > 100 | > 100 | – | > 100 | > 100 | > 100 | > 100 | > 100 | – |
| Cc1cccc(N=NC(=O)NNc2cccc(C)c2C)c1C | > 100 | > 100 | > 100 | 60.2 | > 100 | – | > 100 | > 100 | 53.6 | > 100 | > 100 | > 100 |
| O=C1C=C(C2=CC(=O)C(=O)c3ccccc32)c2ccccc2C1=O | > 100 | 53.3 | 44.2 | > 100 | 37.3 | 48.3 | > 100 | 31.4 | > 100 | > 100 | – | 56.1 |
| C1=CC2SSSC2C1 (stereo not given) | > 100 | – | > 100 | > 100 | – | – | > 100 | > 100 | > 100 | > 100 | – | – |
| COc1ccccc1/C=C1\SC(=S)N(/C=C2\C(=O)Oc3ccccc3C2=O)C1=O | > 100 | 47.7 | > 100 | > 100 | > 100 | > 100 | – | > 100 | 95.7 | > 100 | > 100 | – |
| NC(N)=N/N=C/c1c[nH]c2ccccc12 | > 100 | – | > 100 | > 100 | – | – | > 100 | > 100 | > 100 | > 100 | – | – |
| CCN(CC)CCNc1nc2ccc([N+](=O)[O-])cc2[n+]([O-])n1 | 39.8 | 33.1 | 31.7 | – | 75.3 | 9.86 | > 100 | 64.1 | > 100 | 38.3 | 29.5 | 40.6 |
| Cc1ccc(/C=C2\CCCc3ccccc3C2=O)cc1 | 27.2 | 36.9 | 29.5 | 30 | > 100 | 47.3 | > 100 | 65.9 | 27.8 | 49.2 | 4.48 | – |
| O=P(Nc1ccc(Cl)cc1)(Oc1ccccc1)N(CCCl)CCCl (stereo not given) | > 100 | – | > 100 | – | – | – | > 100 | > 100 | > 100 | > 100 | – | – |
| NN/C(=N\S(=O)(=O)c1cc2ccccc2s1)Nc1ccc(Cl)cc1 | > 100 | 40.4 | 48.2 | 38.6 | 62.4 | 42.4 | 75 | 54.9 | – | 36.4 | – | 37.8 |
| CC12C(=O)CC(CC1=O)C2(C)C | > 100 | – | > 100 | > 100 | > 100 | > 100 | > 100 | > 100 | > 100 | > 100 | > 100 | > 100 |
